We go through 13 compounds from ChEMBL document CHEMBL1201862, “PubChem BioAssay data set” (2004).

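Grown in 96-well plates, cells were treated for 48 hours with each compound at five concentrations. Insufficient inhibition: endpoint recorded as highest concentration tested. The concentration for 50% growth inhibition is given as GI50.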 Activity calls are given as the source filed them. Rule as the data show it: active = GI50 up to about 1.1 µM and inactive = higher.

Holding throughout (assay): inhibition of tumour cell growth, NCI panel, 48 h
Test [1] relates to SK-MEL-28.
Test [2] relates to NCI-H522.
Test [3] relates to MCF7.
For test [4], the system named is UO-31.
For test [5], the system named is DU-145.
Test [6] relates to OVCAR-5.
In test [7] the test system is U-251.
For test [8], the system named is HCT-15.
Test [9] concerns NCI-H460.
Test [10] relates to OVCAR-8.
Test [11] has as its system KM12.
In test [12] the test system is Hs-578T.
The subject of test [13] is OVCAR-3.
Test [14] has as its system SF-295.
The subject of test [15] is SF-268.
In test [16] the test system is Malme-3M.
Test [17] concerns RPMI-8226.
Test [18] has as its system NCI-H23.
Test [19] deals with SNB-75.
Test [20] has as its system T47D.

Turning to `CCOC(=O)c1cc(NC(=O)c2ccccc2)c(=O)n2c(cc3c(Cl)cccc32)c1O`, the GI50 in [1], in [2], in test [3], in [4], in test [5] and in test [6] was > 100 µM (inactive) throughout. In addition, the GI50 in test [7] was > 100 µM (inactive); in test [8], above 100 µM; in [9], > 100 µM (inactive); in test [10], > 100 µM (inactive); in test [11] it was > 100 µM (inactive); in test [12], > 100 µM (inactive). Moreover, the GI50 in [13] was > 100 µM (inactive); in test [14] it was 57.4 µM (inactive); in test [15], > 100 µM (inactive); in [16], > 100 µM (inactive); in test [17], 80.4 µM (inactive); in test [18], > 100 µM (inactive).

Consider `Cc1ccc2c(c1)Nc1ccccc1P2(=O)O`, for which the GI50 in test [1], in test [2], in test [4], in [5], in [6] and in test [7] was > 100 µM (inactive) throughout. Besides, the GI50 in test [8] was above 100 µM; in [9], > 100 µM (inactive); in [10], > 100 µM (inactive); in test [11], > 100 µM (inactive); in test [19] it was < 0.01 µM (active); in test [20], > 100 µM (inactive). The GI50 in [13], in test [14], in [15], in [16] and in [18] was > 100 µM (inactive) throughout.

In the case of `c1ccc(Nc2nnc(-c3ccccc3Nc3ccccc3-c3nnc(Nc4ccccc4)s3)s2)cc1`, the GI50 in [1], in [2], in test [3], in test [4], in [5] and in [6] was > 100 µM (inactive) throughout. Also, the GI50 in test [7] is > 100 µM (inactive); in [8], above 100 µM; in [9], > 100 µM (inactive); in test [10] it was > 100 µM (inactive); in [11] it was > 100 µM (inactive); in test [19] it was > 100 µM (inactive). Besides, the GI50 in [13], in test [14], in test [15], in test [16] and in test [18] was > 100 µM (inactive) in each case.

For `CC(=O)c1ccc2c(c1)c1c(C)c3c[n+](C)ccc3c(C)c1n2C`, the GI50 is 7.87 µM (inactive) in test [1]; 13.7 µM (inactive) in [2]; 3.1 µM (inactive) in [3]; 3.36 µM (inactive) in test [4]; 28.9 µM (inactive) in test [6]; 0.706 µM (active) in test [7]. The GI50 is 17.6 µM in [8]; 2.76 µM (inactive) in [9]; 1.45 µM (inactive) in test [10]; 10.6 µM (inactive) in test [11]; 7.48 µM (inactive) in test [19]; 12 µM (inactive) in test [13]. In addition, the GI50 in test [14] is 0.885 µM (active); in test [15], 0.469 µM (active); in [16] it was 10.4 µM (inactive); in test [17], 3.84 µM (inactive).

As for `CSc1n[n+](C)cc(N)c1N`, the GI50 was > 100 µM (inactive) in [1]; > 100 µM (inactive) in [2]; > 100 µM (inactive) in [3]; 88.9 µM (inactive) in [4]; > 100 µM (inactive) in test [6]; > 100 µM (inactive) in test [7]. The GI50 in [8] was above 100 µM; in [10], > 100 µM (inactive); in [11] it was > 100 µM (inactive); in [19], > 100 µM (inactive); in test [20] it was > 100 µM (inactive); in test [13], > 100 µM (inactive). The GI50 in [14] is > 100 µM (inactive); in [16], 36.1 µM (inactive); in test [17], > 100 µM (inactive); in test [18], > 100 µM (inactive).

With `c1ccc(N2N=C(c3ccco3)CC2c2ccco2)cc1` (stereo not given), the GI50 in test [1] was > 100 µM (inactive); in test [2], 46.9 µM (inactive); in test [4], 28.6 µM (inactive); in test [6] it was > 100 µM (inactive); in test [7], > 100 µM (inactive); in test [8], 69.8 µM. For the same compound, the GI50 in test [9] was 66.1 µM (inactive); in [10] it was > 100 µM (inactive); in [11], 47.4 µM (inactive); in [19] it was 22.3 µM (inactive); in test [13] it was 59.6 µM (inactive); in test [14] it was 57.1 µM (inactive). Further, the GI50 in [15] is > 100 µM (inactive); in test [16], > 100 µM (inactive); in [17] it was 35.2 µM (inactive); in [18] it was 66.5 µM (inactive).

In the case of `NC(=O)c1csc(CCCCCCc2nc(C(N)=O)cs2)n1`, the GI50 was > 100 µM (inactive) in test [1]; > 100 µM (inactive) in [2]; > 100 µM (inactive) in test [4]; > 100 µM (inactive) in test [6]; > 42.5 µM (inactive) in test [7]; above 100 µM in [8]. The GI50 in [9] is > 100 µM (inactive); in test [10], > 100 µM (inactive); in [11], > 59.4 µM (inactive); in test [19], > 100 µM (inactive); in test [13] it was > 100 µM (inactive); in test [14] it was > 100 µM (inactive). Moreover, the GI50 in test [15] is > 100 µM (inactive); in [16], > 100 µM (inactive); in [17], > 50.9 µM (inactive); in test [18] it was > 100 µM (inactive).

With `CNC(C)Cc1ccc(O)cc1` (stereo not given), the GI50 is > 100 µM (inactive) in [1]; > 100 µM (inactive) in test [2]; > 100 µM (inactive) in test [4]; > 100 µM (inactive) in test [6]; > 100 µM (inactive) in test [7]; above 100 µM in test [8]. For the same compound, the GI50 in test [9], in test [10], in [11], in test [19], in test [13] and in [14] was > 100 µM (inactive) throughout. Further, the GI50 in test [15], in [16], in test [17] and in [18] was > 100 µM (inactive) in each case.

Take `CNC(=O)OCC1C2=C(C(=O)C(C)=C(N)C2=O)N2CC3C(N3C)C12OC` (stereo not given): the GI50 in [1] is 47.9 µM (inactive); in test [2] it was 3.19 µM (inactive); in test [3], 3.29 µM (inactive); in test [5] it was 2.47 µM (inactive); in test [6], 72.8 µM (inactive); in [7], 14.1 µM (inactive). Further, the GI50 is 12.1 µM in [8]; 0.0867 µM (active) in [9]; 11.4 µM (inactive) in [10]; 21.9 µM (inactive) in test [20]; 26.5 µM (inactive) in test [13]; 5.02 µM (inactive) in [14]. Further, the GI50 in [16] is 2.38 µM (inactive); in test [17], 23.8 µM (inactive); in test [18], 1.53 µM (inactive).

Regarding `O=C(c1ccccc1)c1c(CC(O)c2cccnc2)n(C(=O)c2ccccc2)c2ccccc12` (stereo not given), the GI50 is 17.7 µM (inactive) in test [1]; 13.1 µM (inactive) in test [2]; 14.1 µM (inactive) in test [4]; 17.9 µM (inactive) in [6]; 17 µM (inactive) in test [7]; 21.3 µM in test [8]. The GI50 in test [9] is 16.9 µM (inactive); in [10], 25.3 µM (inactive); in test [11], 18.9 µM (inactive); in test [19] it was 3.72 µM (inactive); in test [13] it was 16.6 µM (inactive); in [14], 17.4 µM (inactive). In addition, the GI50 in test [15] is 20 µM (inactive); in test [16], 23.8 µM (inactive); in [17], 15.8 µM (inactive); in [18], 16.5 µM (inactive).

`CCOC(=O)c1sc2nc(SC)nc3c2c1NC(=O)CN3c1ccc(F)cc1`: the GI50 is 8.18 µM (inactive) in test [1]; 71.9 µM (inactive) in [2]; 87.3 µM (inactive) in [3]; 18 µM (inactive) in [4]; 40.4 µM (inactive) in test [5]; 41.7 µM (inactive) in test [6]. Besides, the GI50 in [7] was 43.5 µM (inactive); in [9] it was > 100 µM (inactive); in test [10] it was 22.1 µM (inactive); in [11], > 100 µM (inactive); in test [12] it was 27.1 µM (inactive); in test [13], 26.4 µM (inactive). Also, the GI50 in test [14] is 20.1 µM (inactive); in test [15], 20 µM (inactive); in test [16], 48.4 µM (inactive); in test [17], 65.9 µM (inactive); in test [18] it was 50.6 µM (inactive).

For the compound `COc1ccc(C2=CC3CCC2C3)cc1` (stereo not given), the GI50 in [1] is > 100 µM (inactive); in test [2] it was > 100 µM (inactive); in test [4], > 100 µM (inactive); in [6], > 100 µM (inactive); in test [7], > 100 µM (inactive); in [8], above 100 µM. Also, the GI50 in [9], in test [10], in test [11], in test [19], in [13] and in test [14] was > 100 µM (inactive) in each case. Further, the GI50 in test [15], in [16], in test [17] and in test [18] was > 100 µM (inactive) throughout.

Turning to `N#Cc1c(N)nc(Sc2ccccc2N)c(C#N)c1-c1ccccc1`, the GI50 in test [1] was 28.2 µM (inactive); in test [3] it was 10.6 µM (inactive); in test [4], 11.4 µM (inactive); in test [5], 14.8 µM (inactive); in test [6], 46.3 µM (inactive); in test [7], 19.6 µM (inactive). Further, the GI50 was 15.2 µM in [8]; 14.8 µM (inactive) in test [9]; 20.2 µM (inactive) in [10]; 17.8 µM (inactive) in [11]; 17.8 µM (inactive) in test [15]; 16.9 µM (inactive) in test [16]. For the same compound, the results for the GI50 in test [17] and in test [18] were 12.7 µM (inactive) and 13.3 µM (inactive), respectively.
